Data as given in PubChem BioAssay (NCI).
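Results reflect a 48-hour exposure of cells in 96-well plates to compound at five concentrations. GI50 is the concentration that inhibits growth by half. TGI: concentration producing complete growth inhibition.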

Key:
Test in all cases: NCI tumour cell line growth inhibition, 48 h
MALME-3M melanoma = test system: MALME-3M melanoma
SF-268 CNS = test system: SF-268 CNS
EKVX NSCLC = test system: EKVX NSCLC
OVCAR-8 ovarian = test system: OVCAR-8 ovarian
SK-MEL-5 melanoma = test system: SK-MEL-5 melanoma
HT29 colon = test system: HT29 colon
KM12 colon = test system: KM12 colon
KM20L2 colon = test system: KM20L2 colon
LOX IMVI melanoma = test system: LOX IMVI melanoma
NCI-H522 lung = test system: NCI-H522 lung

| SMILES | GI50 (MALME-3M melanoma) [µM] | TGI (MALME-3M melanoma) [µM] | GI50 (SF-268 CNS) [µM] | TGI (SF-268 CNS) [µM] | GI50 (EKVX NSCLC) [µM] | TGI (EKVX NSCLC) [µM] | GI50 (OVCAR-8 ovarian) [µM] | TGI (OVCAR-8 ovarian) [µM] | GI50 (SK-MEL-5 melanoma) [µM] | TGI (SK-MEL-5 melanoma) [µM] | GI50 (HT29 colon) [µM] | TGI (HT29 colon) [µM] | GI50 (KM12 colon) [µM] | TGI (KM12 colon) [µM] | GI50 (KM20L2 colon) [µM] | TGI (KM20L2 colon) [µM] | GI50 (LOX IMVI melanoma) [µM] | TGI (LOX IMVI melanoma) [µM] | TGI (NCI-H522 lung) [µM] | GI50 (NCI-H522 lung) [µM] |
| --- | --- | --- | --- | --- | --- | --- | --- | --- | --- | --- | --- | --- | --- | --- | --- | --- | --- | --- | --- | --- |
| C[CH2][Sn]1([CH2]C)[O]C(=O)[O][Sn]([CH2]C)([CH2]C)[O]1 | 16 | 29.9 | 18.9 | 36.6 | > 41.8 | > 57 | 14.2 | 20.4 | 21.1 | 40.8 | 25.6 | > 62.2 | > 61.5 | > 100 | 31.6 | > 87.7 | 17.2 | 33 | – | – |
| Cc1nc2ccc(C(F)(F)F)cc2nc1Nc1ccc(Cl)c(Cl)c1 | – | 35.7 | – | 37.5 | – | – | – | 25.4 | – | – | – | 18.6 | – | – | – | 13.2 | – | 13.5 | – | – |
| O=C(Nc1ccccc1)c1ccc(Cl)c([N+](=O)[O-])c1 | – | 42.4 | – | – | – | > 100 | – | 39.6 | – | 20 | – | 70.1 | – | 12.7 | – | 47.5 | – | > 100 | 32 | – |
| Nc1ccc(C(=O)N/C(=C\C=C\c2ccco2)c2nc3[nH]c(=S)[nH]c(=O)c3[nH]2)cc1 | – | > 100 | – | > 100 | – | > 100 | – | > 100 | – | > 100 | – | > 100 | – | > 100 | – | > 100 | – | – | > 100 | – |
| CC1CC(c2ccccc2)=Nc2ccccc2S1(=O)=O (stereo unspecified) | – | 37.1 | – | 31.4 | – | 39.6 | – | 43.9 | – | 32.5 | – | – | – | 31.3 | – | 31.7 | – | 31 | 31 | – |
| CCOC(=O)C(C)(C)Oc1ccc2c(=O)cc(-c3ccc(Cl)cc3)oc2c1 | – | > 100 | – | > 100 | – | > 100 | – | > 100 | – | > 100 | – | > 100 | – | – | – | > 100 | – | > 100 | – | – |
| CCCC(=O)c1c(NOC2OC(COC(C)=O)C(OC(C)=O)C(OC(C)=O)C2OC(C)=O)nc(OC)n(C)c1=O (stereo unspecified) | – | – | – | > 100 | – | > 100 | – | > 100 | – | > 100 | – | > 100 | – | > 100 | – | > 100 | – | > 100 | > 100 | – |
| COc1ccc(/C=C/c2cc(OC)c(OC)c(OC)c2)cc1NC(=O)/C=C/c1ccc(F)cc1 | 3.87 | > 100 | 7.7 | > 100 | 7.4 | > 100 | 3.37 | > 100 | 2.72 | > 100 | 2.34 | 13.5 | 2.96 | > 100 | – | – | 6.15 | > 100 | 5.73 | 1.87 |
| COc1cc([C@H](C)c2ccc3ccccc3c2)cc(OC)c1OC | 1.36 | > 100 | 1.67 | > 100 | 0.941 | > 100 | 0.499 | 65.1 | 0.26 | 11.1 | 0.294 | > 100 | 0.276 | > 100 | – | – | 1.03 | > 100 | 28.3 | 0.376 |
| CCCCCCC/C=C/[C@H]1O[C@]23C(=O)C[C@@]4(C[C@@H](OC5OC(CO)C(O)C(O)C5O)C[C@@H]4[C@H]2C=C1C)OC3=O (stereo partly specified) | 4.82 | 9.87 | 5.12 | 11.1 | 6.72 | 17.8 | 6.08 | > 33.3 | 4.88 | 9.37 | 4.18 | 11.9 | 4.66 | 11.6 | – | – | 2.4 | 6.84 | 8.64 | 1.7 |
| COc1cc2c(cc1C)NC(=O)/C2=C\c1cc(OC)c(OC)c(OC)c1 | 72.3 | > 100 | > 100 | > 100 | > 100 | > 100 | > 100 | > 100 | > 100 | > 100 | > 100 | > 100 | > 100 | > 100 | – | – | > 100 | > 100 | > 100 | > 100 |
| C=CC(=O)N1CCCC(n2nc(-c3ccc(Oc4ccccc4)cc3)c3c(N)ncnc32)C1 (stereo unspecified) | 12.4 | 29.3 | 3.12 | 17.2 | 0.164 | 6.65 | 6.56 | 20.4 | 6.55 | 19.3 | 5.93 | 21 | 8.73 | 22 | – | – | 4.26 | 19.1 | 9.31 | 0.0578 |
| O=C1c2cc(Br)ccc2-c2c1c1ccc([N+](=O)[O-])cc1c(=O)n2CCCCl | 0.25 | 7.74 | < 0.0258 | 35.5 | 10.6 | > 100 | 0.293 | 17.4 | 0.24 | 1.02 | 0.309 | 12.1 | 0.5 | > 41.6 | – | – | < 0.0248 | 5.12 | 5.38 | 0.0636 |
| CCN(CC)CCn1c2c3ccccc3ccc2c2oc(=O)c3ccccc3c21 | – | > 100 | – | > 100 | – | > 100 | – | > 100 | – | – | – | > 100 | – | > 100 | – | > 100 | – | > 100 | > 100 | – |
| Cc1cc(S(=O)(=O)Nc2nc(N)nc(N3N=CCC3C)n2)c(S)cc1Cl (stereo unspecified) | – | > 10 | – | > 10 | – | > 10 | – | > 10 | – | > 10 | – | > 10 | – | > 10 | – | – | – | > 10 | > 10 | – |
| CC#CC(O)(C(=O)OC1CCCN(C)C1)C1=CC=CCC1 (stereo unspecified) | – | > 100 | – | > 100 | – | > 100 | – | > 100 | – | > 100 | – | > 100 | – | > 100 | – | – | – | > 100 | > 100 | – |
| COC(=O)CCC/C=C\C[C@H]1C=CC(=O)/C1=C/C[C@@H](O)CCc1cccc(C(F)(F)F)c1 | 2.47 | 8.1 | 3.09 | 11.4 | 4.52 | 16.4 | 3.31 | 11.8 | 1.73 | 3.2 | 2.64 | 6.06 | 1.9 | 4.23 | – | – | 0.955 | 2.24 | 5.57 | 2.02 |
